# Laboratory results: patent US20220031800A1, “PEPTIDES FOR TREATING NON-EXUDATIVE MACULAR DEGENERATION AND OTHER DISORDERS OF THE EYE” (Allegro Pharmaceuticals, LLC, priority 2019, published 2022)
# Legend:
# [1] = test system: neovascularization in mice (CNV); settings: reproduced from US 2019/0062371; cited from earlier work
# [2] = test system: primary human RPE cells; test: ROS level (CM-H2DCFDA) in primary human RPE cells exposed to hydroquinone; format: cell-based; settings: HQ 125-180 uM, 3-4 hours
# Experimental: (§1) Purpose: To determine if risuteganib protects against hydroquinone (HQ)-mediated cell injury, elevated ROS level and reduced mitochondrial membrane potential (Δψm) in cultured human RPE cells. Elevated ROS levels increase oxidative stress in the cells, leading to reduced cell health and cell death. Loss of ΔΨm is a marker for early cell death. Methods: Primary human RPE cells were seeded on collagen-coated 96-well plates in triplicates at 8K, 10K and […] cells/well, respectively. Cells reached 80% to 100% confluence 24 hours after plating, and confluent cells were then grown for an additional 4 or 5 days until growth was density arrested. On day 6 after plating, cells in the plate upper half were loaded with 20 μM CM-H2DCFDA (measures ROS level) and in the plate lower half with 10 μM JC-1 (measures Δψm) for 30 minutes at 37° C. […] For the ROS and Δψm assays, a fluorescence plate reader was used to quantify ROS production (490-nm excitation, 522-nm emission), and green monomer of JC-1 (490-nm excitation, 522-nm emission) and red JC-1 aggregate (535-nm excitation, 590-nm emission), respectively. […] The WST reagent was quantified with a plate reader at 440 nm and a reference wavelength at 690 nm. Data were normalized to untreated control as 100% and were expressed as the mean±SD.
# [3] = test system: primary human RPE cells; test: WST-1 cell viability of primary human RPE cells exposed to hydroquinone; format: cell-based; settings: HQ 125-180 uM, 4 hours or 5 hours
# Experimental: as §1
# [4] = test system: primary human RPE cells; test: Mitochondrial membrane potential (JC-1) in primary human RPE cells exposed to hydroquinone; format: cell-based; settings: HQ 125-180 uM, 3-4 hours
# Experimental: as §1
# [5] = Trypan blue viability of human RPE cells (ARPE-19) exposed to hydrogen peroxide; format: cell-based; settings: human, ARPE-19 cells (human RPE cells); 100 μM H2O2 alone, 8 hours; read-out: Reduction of cell viability
# Experimental: Purpose: Investigate cytoprotective properties of risuteganib in human RPE cells (ARPE-19) exposed to hydrogen peroxide, which is a reactive oxygen species that can induce cell death at elevated levels. Methods: ARPE-19 cells were cultured in laminin-coated trans-wells for 2 weeks to induce differentiation. Cells were then exposed to the experimental conditions: […]
# [6] = Trypan blue viability of primary mouse Müller cells exposed to kainic acid; format: cell-based, CD1 mice; settings: CD1, mouse; 500 μM kainic acid alone, 48 hours; read-out: Reduction of Muller cell viability
# Description: Purpose: Investigate neuroprotective properties of risuteganib in primary mouse Müller cells exposed to kainic acid, a neuroexcitatory compound that activates glutamate receptors, resulting in overstimulation and cell death. Retinal Müller cells support normal functions of neurons and their dysregulation can leads to loss of homeostasis and neuronal cell death.
# Methods: Fresh retina were collected from CD1 mice and then mechanically dissociated with sterile Pasteur pipette into small aggregates and seeded into 35 mm culture dishes. All cultures were first left unchanged for 5-6 days and then replenished every 3-4 days. When the cell growth had reached around 80% confluency, retinal aggregates and debris were removed by media washes to form a purified cell monolayer. Cells were then exposed to the experimental conditions: (1) untreated control, (2) 1.0 mg/mL risuteganib, (3) 500 μM kainic acid (KA), and (4) 1.0 mg/mL risuteganib for 24 hours before 500 μM kainic acid exposure. 48 hours after kainic acid treatment, dead and live cell numbers were measured using Trypan blue exclusion assay on a hemocytometer.
# [7] = Trypan blue viability of primary mouse retinal neuron cells exposed to kainic acid; format: cell-based, CD1 mice; settings: CD1, mouse; 500 μM kainic acid alone, 8 hours; read-out: Reduction of cell viability
# Experimental: Purpose: Investigate neuroprotective properties of risuteganib in primary mouse retinal neuron cells exposed to kainic acid, a neuroexcitatory compound that activates glutamate receptors, resulting in overstimulation and cell death.
# Methods: Fresh retina were collected from CD1 mice and then mechanically dissociated with sterile Pasteur pipette. Cell suspensions were then dispensed into petri dish and incubated for 6 hours. Cells were then exposed to the experimental conditions: (1) untreated control, (2) 1.0 mg/mL risuteganib, (3) 500 μM kainic acid (KA), and (4) 1.0 mg/mL risuteganib for 24 hours before 500 μM kainic acid exposure. 8 hours after kainic acid treatment, dead and live cell numbers were measured using Trypan blue exclusion assay on a hemocytometer.
# [8] = test system: human retinal Müller cells (MIO-M1); test: Reactive oxygen species level in human Müller cells (MIO-M1); format: cell-based; settings: 1× concentration (clinical dose), 24 hours
# Experimental: Purpose: To determine the effects of risuteganib and anti-VEGF drugs on reactive oxygen species (ROS) levels in cultured human retinal Müller cells (MIO-M1). Elevated ROS levels can disrupt normal cellular functions, leading to reduced cell health and possible cell death.
# Methods: The immortalized human retinal Müller cell line (MIO-M1) was obtained from the Department of Cell Biology of the University College, London. Cells were cultured in Dulbecco's Modified Eagle's Medium (DMEM) and plated in 24-well plates for 24 hours before treatment with 1× concentration of 1 mg/50 μL ALG-1001, ranibizumab, bevacizumab, or aflibercept. Dosage was based on clinical dose of each compound. The experiments were repeated 3 times with 6 replicates each. After 24 hours drug treatment, ROS level was measured using the fluorescent dye 2′,7′-dichlorodihydrofluorescein diacetate. The signals were read using the Biotek Synergy HT plate reader with EX filter in 482 nm and EM filter in 520 nm. Results were normalized to untreated control as 100%. Statistical analysis was performed in GraphPad Prism software program.
# [9] = test system: human retinal Müller cells (MIO-M1); test: MTT cell viability of human Müller cells (MIO-M1); format: cell-based; settings: 1× concentration (clinical dose), 24 hours, vs untreated (FIG. 18)
# Experimental: Purpose: To determine the effects of risuteganib and anti-VEGF drugs on the cell viability of cultured human retinal Müller cells (MIO-M1).
# Methods: The immortalized human retinal Müller cell line (MIO-M1) was obtained from the Department of Cell Biology of the University College, London. Cells were cultured in Dulbecco's Modified Eagle's Medium (DMEM) and plated in 96-well plates for 24 hours before treatment with 0.5×, 1× or 2× concentrations of 1 mg/50 μL risuteganib, or 1× of ranibizumab, bevacizumab or aflibercept. Dosage was based on clinical dose of each compound. The experiments were repeated 3 times with 7-8 replicates each. After 24 hours of drug treatment, MTT NAD(P)H-dependent colorimetric assay was used to assess the number of viable cells present in the cultures. Absorbance ratios were normalized to untreated control as 100%. Statistical analysis was performed in GraphPad Prism software program.
# [10] = test system: human retinal Müller cells (MIO-M1); test: Mitochondrial membrane potential (JC-1) in human Müller cells (MIO-M1); format: cell-based; settings: 1× concentration (clinical dose), 24 hours, vs untreated control
# Experimental: Purpose: To determine the effects of risuteganib on the mitochondrial membrane potential (ΔΨm) in cultured human retinal Müller cells (MIO-M1). Loss of ΔΨm is a marker for early cell death.
# Methods: The immortalized human retinal Müller cell line (MIO-M1) was obtained from the Department of Cell Biology of the University College, London. Cells were cultured in Dulbecco's Modified Eagle's Medium (DMEM) and plated in 24-well plates for 24 hours before treatment with 1× concentration of 1 mg/50 μL risuteganib, ranibizumab, bevacizumab, or aflibercept. Dosage was based on clinical dose of each compound. The experiments were repeated 3 times with 6 replicates each. After 24 hours drug treatment, the ΔΨm was measured using the JC-1 kit, a cationic dye that fluoresces red within the mitochondria of healthy, live cells. In the stressed or apoptotic cells, the mitochondrial membrane potential collapses and the cationic dye fluoresces green. First, cells were rinsed with fresh media and then incubated with the JC-1 reagent for 15 minutes at 37 degrees C. The dyes were then removed, and phosphate buffered saline was added to each well. The Red fluorescence (live cells) was read at EX 550 nm and EM 600 nm. The Green fluorescence (apoptotic cells) was read at EX 483 nm and EM 535 nm. The changes in ΔΨm were calculated by the ratio of red to green fluorescence. […]
molecule,measurement,setting,value
R- G - Cys(acid)•Acetate [Test Compound 2],Activity At Dose Tested,[1],Active
same,Mean % Reduction of Retinal Neovascularization In ROP Model,[1],56 - FIG. 11%
"Oc1ccc(O)cc1 [HQ, hydroquinone, reference compound]",Increase in ROS levels compared to untreated cells,[2],78%
same,Change in cell viability compared to untreated cells,[3],−82%
same,Change in Δψm compared to untreated cells,[4],−53%
"OO [H2O2, hydrogen peroxide, reference compound]","cytotoxicity at 8 h, 100 μM",[5],22%
"C=C(C)[C@H]1CN[C@H](C(=O)O)[C@H]1CC(=O)O [kainic acid, reference compound]","cytotoxicity at 48 h, 500 μM",[6],32%
same,"cytotoxicity at 8 h, 500 μM",[7],42%
bevacizumab [reference compound],Change in ROS level compared to untreated control,[8],24%
same,"Cell viability (MTT), in words",[9],decreased cell viability
aflibercept [reference compound],Change in ROS level compared to untreated control,[8],29%
same,"Cell viability (MTT), in words",[9],decreased cell viability
same,"Mitochondrial membrane potential (ΔΨm), in words",[10],decreased ΔΨm
R - G - Cys(acid)•TFA [Test Compound 1],Activity At Dose Tested,[1],Active
same,Mean % Reduction of Retinal Neovascularization In ROP Model,[1],49 - FIG. 11%
"ranibizumab (antibody, chains of the INN, looked up, V domains shown, anti-VEGF agent) VH: EVQLVESGGGLVQPGGSLRLSCAASGYDFTHYGMNWVRQAPGKGLEWVGWINTYTGEPTYAADFKRRFTFSLDTSKSTAYLQMNSLRAEDTAVYYCAKYPYYYGTSHWYFDVWGQGTLVTVSS VL: DIQLTQSPSSLSASVGDRVTITCSASQDISNYLNWYQQKPGKAPKVLIYFTSSLHSGVPSRFSGSGSGTDFTLTISSLQPEDFATYYCQQYSTVPWTFGQGTKVEIK",Change in ROS level compared to untreated control,[8],37%
same,"Cell viability (MTT), in words",[9],decreased cell viability
